From article PMC4585929, “Cargo Delivery into the Brain by in vivo identified Transport Peptides” (Scientific Reports, 2015)
Entries after “also recorded” stand apart in the source; their conditions may differ.

Legend:
[1] = Blood pharmacokinetics of i.v. injected T7 phage in cisterna magna cannulated rats (plaque counting); type: in vivo, rat
From the text: (§1) The cisterna magna (CM) was cannulated using modification of methods previously described. Anesthetized Wistar rats (200–350 g) were mounted onto a stereotaxic device and a median incision was made on the top of the shaved and aseptically prepared skin of head to expose the skull. Two holes were drilled at the parietal region and mounting screws were secured in the holes. An additional hole was drilled at the external occipital crest and used to stereotactically guide the stainless steel cannula into the CM. Dental cement was applied around the cannula and the screws to hold it in place. After light curing and solidification of the cement, the skin wound was sutured with a 4/0 supramid yarn. Correct placement of the cannula is confirmed by spontaneous flow of cerebrospinal fluid (CSF). The rats were removed from the stereotaxic apparatus, received appropriate post-operative care and analgesic treatment and allowed to recover for at least one week until no sign of blood in the CSF was observed. Wistar rats (Crl:WI/Han) were obtained from Charles River (France). All rats were kept under specific pathogen-free conditions. All animal experiments were approved by the Swiss Veterinary Office Basel-Stadt and were carried out in accordance with the animal permission #2474 (Assessment of active brain transport by measuring the level of therapeutic candidates in the rat CSF and brain).
The CM cannulated conscious rats were gently held in the hand. The mandrain was pulled out of the cannula and 10ul of the spontaneous flowing CSF was collected. […]
The amplified phages underwent 2–3 rounds of endotoxin removal using endotoxin removal beads (Miltenyi Biotec) before intravenous (i.v.) injection (500 ul/animal). […] The phage contents in the CSF and blood samples harvested at the indicated time-points were determined by a plaque counting assay according to the manufacturer’s instructions (T7Select System Manual). […] A total of four rounds of in vivo panning were performed in which two selection branches were kept and analyzed separately during the first three selection rounds. […]

[2] = CSF sampling model: phage recovered from CSF of cisterna magna cannulated conscious rats after i.v. injection (plaque counting); type: in vivo, rat
From the text: as §1
The CM cannulated conscious rats were gently held in the hand. The mandrain was pulled out of the cannula and 10ul of the spontaneous flowing CSF was collected. Only clear CSF samples with no sign of blood contamination or discoloration were included in this study since patency of the cannula was eventually compromised. In parallel ∼10–20 μL blood from a small incision of the tip of the tail was collected in heparin (Sigma-Aldrich) containing tubes. CSF and blood was collected at different time points after intravenous injection of the T7 bacteriophages. Prior to collecting every CSF sample ∼5–10 μL of fluid was discarded, which represents the catheter dead volume.
The amplified phages underwent 2–3 rounds of endotoxin removal using endotoxin removal beads (Miltenyi Biotec) before intravenous (i.v.) injection (500 ul/animal). 2 × 10^12 phages were injected in the first, 2 × 10^10 phages were injected in the second and 2 × 10^9 phages were injected per animal in the third and fourth round of selection. The phage contents in the CSF and blood samples harvested at the indicated time-points were determined by a plaque counting assay according to the manufacturer’s instructions (T7Select System Manual). Phage selection was carried out by i.v. tail vein injection of the purified library or by re-injection of the CSF recovered phages of the previous selection round, and 10 min, 30 min, 60 min, 90 min, 120 min, 180 min respectively 240 min later CSF and blood samples were collected. A total of four rounds of in vivo panning were performed in which two selection branches were kept and analyzed separately during the first three selection rounds. All CSF recovered phage inserts of the first two selection rounds were subjected to 454/Roche pyrosequencing whereas all CSF recovered clones of the last two selection rounds were manually sequenced. All blood harvested phages of the first selection round were also 454/Roche pyrosequenced. For the injection of the phage clones the selected phages were amplified in E. coli (BL5615) on 500 cm^2 plates at 37 °C for 4 hours. The individually picked and manually sequenced clones were amplified in TB medium. After phage extraction, purification and endotoxin removal steps (described above) 2 × 10^10 phages/animal in 300 μl were i.v. injected into one tail vein.
Supplementary Figure 3 – Pharmacokinetic profiles of wt T7 phage in the CSF and blood
compartments. Determination of the clearance of wt phage from the blood and their occurrence in
the CSF compartment over time. […]

brain capillaries = assay: Immunohistochemistry of phage particles in rat brain 1 hour after i.v. injection; type: in vivo; details: 2 × 10^10 phage/animal, FITC anti-T7 antibody
Protocol: Selected phage clones and insertless phage were i.v. injected via tail vein (2 × 10^10 phage/animal in 300 μl PBS). 10 minutes before perfusion and subsequent fixation 100 ul DyLight594 labeled lectin (Vector Laboratories Inc., DL-1177) was i.v. injected into the same animals. 60 minutes after phage administration rats were perfused through the heart with 50 ml PBS followed by 50 ml 4% PFA/PBS. Brain samples were additionally fixed by 4% PFA/PBS overnight and immersed in 30% sucrose at 4 °C overnight. Samples were frozen quickly in O.C.T. compound. Frozen samples were subject to immunohistochemistry, performed on 30 um freezing sections blocked with 1% BSA for 2 hours at room temperature and incubated with a polyclonal FITC labeled antibody against the T7 phage (Novus NB 600-376A) overnight at 4 °C. Finally, the sections were then washed 3 times with PBS and observed with a laser confocal microscope (Leica TCS SP5).

[3] = wt T7 phage, 1x10^10 phage i.v., 4 cannulated rats, plaque counting
[4] = wt phage i.v., average over entire sampling period (0–250 minutes)
[5] = 2 × 10^10 phages/animal i.v., CM cannulated rats, result in words

Row | Sequence | injected dose of wt phage detected in the blood 10 min post i.v. injection ([1]; rat, tail vein i.v., calculated from injected titer and rat blood volume) | half-life in blood (slower first-order clearance after initial rapid drop) [1, 3] [min] | half-life in CSF [2, 3] [min] | CSF phage as percentage of the blood T7 phage titer [2, 4] | CSF phage as percentage of the initially injected phage [2, 4] | CSF phage as percentage of the blood T7 phage titer ([2]; wt phage i.v., average over entire sampling period (0–250 minutes), listed as wt T7 phages) [%] | phage staining in the brain capillaries (IHC) (brain capillaries) | stability in the blood / plasma half-life compared to other hits [1, 5] | CSF concentration course over the sampling time [2, 5] | CSF titer change during the first 10 minutes [2, 5] | long term CSF profile over 48 hour period ([2]; 2 × 10^10 phages/animal i.v., at least three CM cannulated rats, result in words) | CSF titer relative to empty control phage (#1779) ([2]; 2 × 10^10 phages/animal tail vein i.v., at least 3 CM cannulated rats each)
1 | PAGISRELVDKL [wt phage, wild-type T7 phage with backbone 12-mer insert …, reference compound] | about 1% | 27.7 | 25.7 | about 1 × 10^−3% | ~4 × 10^−8% | 0.001 |  |  |  |  |  | 
2 | RLSSVDSDLSGC [#2077, T7 phage clone displaying …; also synthesized as N-terminally biotinylated transport peptide] |  |  |  |  |  |  | strong staining in the brain capillaries | increased stability in the blood; also recorded: prolonged plasma half-life compared to other hits | stabilized at a high level | increased during the first 10 minutes | rapid increase in CSF and a sustainable level | about 1000 fold
